Experimental data: patent publication US20220119354A1, “DIAMINO-SUBSTITUTED PYRIDINES AND PYRIMIDINES AS HERBICIDES” (FMC Corporation, priority 2019, published 2022)

Key:
Format in all cases: in vivo
[1] = test system: barnyardgrass (Echinochloa crus-galli); experiment: Test A preemergence, barnyardgrass; details: 0 to 100 scale, 0 is no effect, 100 is complete control
Outline: (§1)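 Greenhouse evaluation: treated and untreated pots were held about 10 d, then injury was rated visually from 0 (no effect) to 100 (complete control). Application was preemergence to soil or postemergence to seedlings 2–10 cm tall, using a non-phytotoxic solvent formulation with surfactant.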

[2] = test system: kochia (Kochia scoparia); experiment: Test A preemergence, kochia; details: 0 to 100 scale, 0 is no effect, 100 is complete control
Outline: as §1

[3] = test system: ragweed (common ragweed, Ambrosia elatior); experiment: Test A preemergence, ragweed; details: 0 to 100 scale, 0 is no effect, 100 is complete control
Description: Seeds of plant species selected from barnyardgrass (Echinochloa crus-galli), kochia (Kochia scoparia), ragweed (common ragweed, Ambrosia elatior), ryegrass, Italian (Lolium multiflorum), foxtail, giant (Setaria faberii), foxtail, green (Setaria viridis), and pigweed (Amaranthus retroflexus) were planted into a blend of loam soil and sand and treated preemergence with a directed soil spray using test chemicals formulated in a non-phytotoxic solvent mixture which included a surfactant.
At the same time, plants selected from these weed species and also wheat (Triticum aestivum), corn (Zea mays), blackgrass (Alopecurus myosuroides), and galium (catchweed bedstraw, Galium aparine) were planted in pots containing the same blend of loam soil and sand and treated with postemergence applications of test chemicals formulated in the same manner. Plants ranged in height from 2 to 10 cm and were in the one- to two-leaf stage for the postemergence treatment. Treated plants and untreated controls were maintained in a greenhouse for approximately 10 d, after which time all treated plants were compared to untreated controls and visually evaluated for injury. Plant response ratings, summarized in Table A, are based on a 0 to 100 scale where 0 is no effect and 100 is complete control. A dash (-) response means no test result.

[4] = test system: ryegrass, Italian (Lolium multiflorum); experiment: Test A preemergence, Italian ryegrass; details: 0 to 100 scale, 0 is no effect, 100 is complete control
Outline: as §1

[5] = test system: foxtail, giant (Setaria faberii); experiment: Test A preemergence, giant foxtail; details: 0 to 100 scale, 0 is no effect, 100 is complete control
Outline: as §1

[6] = test system: barnyardgrass (Echinochloa crus-galli); experiment: Test A postemergence, barnyardgrass; details: 0 to 100 scale
Outline: as §1

[7] = test system: kochia (Kochia scoparia); experiment: Test A postemergence, kochia; details: 0 to 100 scale
Outline: as §1

[8] = test system: ragweed (common ragweed, Ambrosia elatior); experiment: Test A postemergence, ragweed; details: 0 to 100 scale
Outline: as §1

[9] = test system: ryegrass, Italian (Lolium multiflorum); experiment: Test A postemergence, Italian ryegrass; details: 0 to 100 scale
Outline: as §1

[10] = test system: foxtail, giant (Setaria faberii); experiment: Test A postemergence, giant foxtail; details: 0 to 100 scale
Outline: as §1

[11] = test system: pigweed (Amaranthus retroflexus); experiment: Test A postemergence, pigweed; details: 0 to 100 scale
Outline: as §1

[12] = test system: wheat (Triticum aestivum); experiment: Test A postemergence, wheat; details: 0 to 100 scale
Outline: as §1

[13] = test system: corn (Zea mays); experiment: Test A postemergence, corn; details: 0 to 100 scale, 0 no effect, 100 complete control
Outline: as §1

[14] = test system: blackgrass (Alopecurus myosuroides); experiment: Test A postemergence, blackgrass; details: 0 to 100 scale
Outline: as §1

[15] = test system: galium (catchweed bedstraw, Galium aparine); experiment: Test A postemergence, galium; details: 0 to 100 scale
Outline: as §1

[16] = test system: rice (Oryza sativa); experiment: Test B flooded paddy test, rice; details: Flood, 250 g ai/ha, applied to paddy water, 2-leaf stage, visual evaluation after 13 to 15 d
Outline: (§2)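 Growth to two leaves preceded treatment. Flooding to 3 cm above soil surface, then water-applied compound; depth kept constant. Scored visually relative to controls after 13–15 d greenhouse; 100 means full control.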

[17] = test system: sedge, umbrella (small-flower umbrella sedge, Cyperus difformis); experiment: Test B flooded paddy test, umbrella sedge; details: Flood, 250 g ai/ha, applied to paddy water, 2-leaf stage, visual evaluation after 13 to 15 d
Outline: as §2

[18] = test system: ducksalad (Heteranthera limosa); experiment: Test B flooded paddy test, ducksalad; details: Flood, 250 g ai/ha, applied to paddy water, 2-leaf stage, visual evaluation after 13 to 15 d
Outline: as §2

[19] = test system: barnyardgrass (Echinochloa crus-galli); experiment: Test B flooded paddy test, barnyardgrass; details: Flood, 250 g ai/ha, applied to paddy water, 2-leaf stage, visual evaluation after 13 to 15 d
Outline: as §2

[20] = test system: pigweed (Amaranthus retroflexus); experiment: Test A preemergence, pigweed; details: 0 to 100 scale, 0 is no effect, 100 is complete control
Outline: as §1

[21] = 31 g ai/ha, 0 no effect, 100 complete control
[22] = 125 g ai/ha, 0 no effect, 100 complete control
[23] = 500 g ai/ha, 0 is no effect, 100 is complete control

C[C@@H](Nc1ncc(C(F)(F)F)c(N)n1)c1cc2ccccc2[s+]1[O-] (some centres unmarked) [Compound 113]
Barnyardgrass plant response rating ([1]; 31 g ai/ha): 0 | Barnyardgrass plant response rating ([1]; 125 g ai/ha): 0 | Kochia plant response rating ([2]; 31 g ai/ha): 20 | Kochia plant response rating ([2]; 125 g ai/ha): 80 | Ragweed plant response rating ([3]; 31 g ai/ha): 0 | Ragweed plant response rating ([3]; 125 g ai/ha): 20 | Ryegrass, Italian plant response rating ([4]; 31 g ai/ha): 0 | Ryegrass, Italian plant response rating ([4]; 125 g ai/ha): 30 | Foxtail, Giant plant response rating ([5]; 31 g ai/ha): 0 | Foxtail, Giant plant response rating ([5]; 125 g ai/ha): 10 | Plant response rating, Barnyardgrass [6, 21]: 0 | Plant response rating, Barnyardgrass [6, 22]: 0 | Plant response rating, Kochia [7, 21]: 30 | Plant response rating, Kochia [7, 22]: 70 | Plant response rating, Ragweed [8, 21]: 0 | Plant response rating, Ragweed [8, 22]: 40 | Plant response rating, Ryegrass, Italian [9, 21]: 0 | Plant response rating, Ryegrass, Italian [9, 22]: 0 | Plant response rating, Foxtail, Giant [10, 21]: 0 | Plant response rating, Foxtail, Giant [10, 22]: 0 | Plant response rating, Pigweed [11, 21]: 40 | Plant response rating, Pigweed [11, 22]: 100 | Plant response rating, Wheat [12, 21]: 0 | Plant response rating, Wheat [12, 22]: 0 | Plant response rating, Corn ([13]; 31 g ai/ha): 20 | Plant response rating, Corn ([13]; 125 g ai/ha): 0 | Plant response rating, Blackgrass [14, 21]: 0 | Plant response rating, Blackgrass [14, 22]: 0 | Plant response rating, Galium [15, 21]: 40 | Plant response rating, Galium [15, 22]: 70 | Plant response rating, Rice (0 to 100 scale, 0 is no effect, 100 is complete control) [16]: 0 | Plant response rating, Sedge, Umbrella (0 to 100 scale, 0 is no effect, 100 is complete control) [17]: 0 | Plant response rating, Ducksalad (0 to 100 scale, 0 is no effect, 100 is complete control) [18]: 0 | Plant response rating, Barnyardgrass (0 to 100 scale, 0 is no effect, 100 is complete control) [19]: 0

C[C@@H](Nc1ncc(C(F)(F)F)c(N)n1)c1coc2ccccc12 [Compound 52, N2-[(1R)-1-(3-benzofuranyl)ethyl]-5-(trifluoromethyl)-2,4-pyrimidinediamine]
Barnyardgrass plant response rating ([1]; 125 g ai/ha): 70 | Barnyardgrass plant response rating ([1]; 500 g ai/ha): 100 | Kochia plant response rating ([2]; 125 g ai/ha): 90 | Kochia plant response rating ([2]; 500 g ai/ha): 100 | Ragweed plant response rating ([3]; 125 g ai/ha): 100 | Ragweed plant response rating ([3]; 500 g ai/ha): 100 | Ryegrass, Italian plant response rating ([4]; 125 g ai/ha): 80 | Ryegrass, Italian plant response rating ([4]; 500 g ai/ha): 90 | Foxtail, Giant plant response rating ([5]; 125 g ai/ha): 90 | Foxtail, Giant plant response rating ([5]; 500 g ai/ha): 100 | Pigweed plant response rating ([20]; 125 g ai/ha): 100 | Pigweed plant response rating ([20]; 500 g ai/ha): 100 | Barnyardgrass plant response rating [6, 23]: 90 | pest or weed control at 125 g/ha ([6]; Echinochloa crus-galli, post-emergence, 240 h, 125 g ai/ha, 0 no effect, 100 complete control, read-out: Plant response rating, Barnyardgrass): 30% | Kochia plant response rating [7, 23]: 90 | pest or weed control at 125 g/ha ([7]; Bassia scoparia, post-emergence, 240 h, 125 g ai/ha, 0 no effect, 100 complete control, read-out: Plant response rating, Kochia): 90% | Ragweed plant response rating [8, 23]: 100 | pest or weed control at 125 g/ha ([8]; Ambrosia artemisiifolia, post-emergence, 240 h, 125 g ai/ha, 0 no effect, 100 complete control, read-out: Plant response rating, Ragweed): 80% | Ryegrass, Italian plant response rating [9, 23]: 100 | pest or weed control at 125 g/ha ([9]; Lolium multiflorum, post-emergence, 240 h, 125 g ai/ha, 0 no effect, 100 complete control, read-out: Plant response rating, Ryegrass, Italian): 60% | Foxtail, Giant plant response rating [10, 23]: 90 | pest or weed control at 125 g/ha ([10]; Setaria faberi, post-emergence, 240 h, 125 g ai/ha, 0 no effect, 100 complete control, read-out: Plant response rating, Foxtail, Giant): 40% | Pigweed plant response rating [11, 23]: 100 | pest or weed control at 125 g/ha ([11]; Amaranthus retroflexus, post-emergence, 240 h, 125 g ai/ha, 0 no effect, 100 complete control, read-out: Plant response rating, Pigweed): 100% | Wheat plant response rating [12, 23]: 30 | plant injury at 125 g/ha ([12]; Triticum aestivum, post-emergence, 240 h, 125 g ai/ha, 0 no effect, 100 complete control, read-out: Plant response rating, Wheat): 0% | Blackgrass plant response rating [14, 23]: 90 | pest or weed control at 125 g/ha ([14]; Alopecurus myosuroides, post-emergence, 240 h, 125 g ai/ha, 0 no effect, 100 complete control, read-out: Plant response rating, Blackgrass): 50% | Galium plant response rating [15, 23]: 90 | pest or weed control at 125 g/ha ([15]; Galium, post-emergence, 240 h, 125 g ai/ha, 0 no effect, 100 complete control, read-out: Plant response rating, Galium): 80% | plant injury at 250 g/ha ([16]; Oryza sativa, 360 h, read-out: Plant response rating, Rice (0 to 100 scale, 0 is no effect, 100 is complete control)): 10% | pest or weed control at 250 g/ha ([17]; Cyperus difformis, 360 h, read-out: Plant response rating, Sedge, Umbrella (0 to 100 scale, 0 is no effect, 100 is complete control)): 95% | pest or weed control at 250 g/ha ([18]; Heteranthera limosa, 360 h, read-out: Plant response rating, Ducksalad (0 to 100 scale, 0 is no effect, 100 is complete control)): 100% | pest or weed control at 250 g/ha ([19]; Echinochloa crus-galli, 360 h, read-out: Plant response rating, Barnyardgrass (0 to 100 scale, 0 is no effect, 100 is complete control)): 90%
